From paper PMC12420824, “Discovery of a selective alpha-kinase 1 inhibitor for the rare genetic disease ROSAH syndrome” (Nature Communications, 2025)
Values joined by “and” are separate entries in the source; they are usually repeats but may differ in a detail not shown here. Equal entries are not always repeated.

Legend:
ERBB2/HER2 = ERBB2/HER2 (Homo sapiens, UniProt P04626); test: HotSpot kinase assay; settings: read-out: % Enzyme Activity (relative to DMSO control), 10 uM
From the text: (§1) Additionally, a 10-dose dilution series of staurosporine and other enzyme-appropriate compounds were included as positive control inhibitors.

DYRK2 = DYRK2 (Homo sapiens, UniProt Q92630); test: HotSpot kinase assay; settings: read-out: % Enzyme Activity (relative to DMSO control), 10 uM
From the text: as §1

PLK2 = PLK2 (Homo sapiens, UniProt Q9NYY3); test: HotSpot kinase assay; settings: read-out: % Enzyme Activity (relative to DMSO control), 10 uM
SIK3 = SIK3 (Homo sapiens, UniProt Q9Y2K2); test: HotSpot kinase assay; settings: read-out: % Enzyme Activity (relative to DMSO control), 10 uM
From the text: as §1

c-MER = c-MER (Homo sapiens, UniProt Q12866); test: HotSpot kinase assay; settings: read-out: % Enzyme Activity (relative to DMSO control), 10 uM
From the text: as §1

MNK1 = MNK1 (Homo sapiens, UniProt Q9BUB5); test: HotSpot kinase assay; settings: read-out: % Enzyme Activity (relative to DMSO control), 10 uM
NEK2 = NEK2 (Homo sapiens, UniProt P51955); test: HotSpot kinase assay; settings: read-out: % Enzyme Activity (relative to DMSO control), 10 uM
From the text: as §1

CDK16/cyclin Y (PCTAIRE) = CDK16/cyclin Y (PCTAIRE) (Homo sapiens, UniProt Q00536); test: biochemical; settings: read-out: % Enzyme Activity (relative to DMSO control), 10 uM
From the text: as §1

EIF2AK4 = EIF2AK4 (Homo sapiens, UniProt Q9P2K8); test: HotSpot kinase assay; settings: read-out: % Enzyme Activity (relative to DMSO control), 10 uM
From the text: as §1

NIM1 = NIM1 (Homo sapiens, UniProt Q8IY84); test: HotSpot kinase assay; settings: read-out: % Enzyme Activity (relative to DMSO control), 10 uM
From the text: as §1

CDK1/cyclin E = CDK1/cyclin E (Homo sapiens, UniProt P06493); test: HotSpot kinase assay; settings: read-out: % Enzyme Activity (relative to DMSO control), 10 uM
CAMK1d = CAMK1d (Homo sapiens, UniProt Q8IU85); test: HotSpot kinase assay; settings: read-out: % Enzyme Activity (relative to DMSO control), 10 uM
From the text: as §1

BMX/ETK = BMX/ETK (Homo sapiens, UniProt P51813); test: HotSpot kinase assay; settings: read-out: % Enzyme Activity (relative to DMSO control), 10 uM
JNK2 = JNK2 (Homo sapiens, UniProt P45984); test: HotSpot kinase assay; settings: read-out: % Enzyme Activity (relative to DMSO control), 10 uM
From the text: as §1

MLK1/MAP3K9 = MLK1/MAP3K9 (Homo sapiens, UniProt P80192); test: HotSpot kinase assay; settings: read-out: % Enzyme Activity (relative to DMSO control), 10 uM
From the text: as §1

MRCKa/CDC42BPA = MRCKa/CDC42BPA (Homo sapiens, UniProt Q5VT25); test: HotSpot kinase assay; settings: read-out: % Enzyme Activity (relative to DMSO control), 10 uM
From the text: as §1

TSSK3/STK22C = TSSK3/STK22C (Homo sapiens, UniProt Q96PN8); test: HotSpot kinase assay; settings: read-out: % Enzyme Activity (relative to DMSO control), 10 uM
From the text: as §1

[1] = tested on: NF-κB reporter HEK-293 cells overexpressing ALPK1; test: NF-κB luciferase reporter
MSK1/RPS6KA5 = MSK1/RPS6KA5 (Homo sapiens, UniProt O75582); test: HotSpot kinase assay; settings: read-out: % Enzyme Activity (relative to DMSO control), 10 uM
From the text: as §1

CK2a = CK2a (Homo sapiens, UniProt P68400); test: HotSpot kinase assay; settings: read-out: % Enzyme Activity (relative to DMSO control), 10 uM
From the text: as §1

CDK14/cyclin Y (PFTK1) = CDK14/cyclin Y (PFTK1) (Homo sapiens, UniProt O94921); test: HotSpot kinase assay; settings: read-out: % Enzyme Activity (relative to DMSO control), 10 uM
From the text: as §1

JAK3 = JAK3 (Homo sapiens, UniProt P52333); test: HotSpot kinase assay; settings: read-out: % Enzyme Activity (relative to DMSO control), 10 uM
MST4 = MST4 (Homo sapiens, UniProt Q9P289); test: HotSpot kinase assay; settings: read-out: % Enzyme Activity (relative to DMSO control), 10 uM
From the text: as §1

[2] = 28 day GLP toxicology study; format: in vivo; settings: dogs
AMPK(A1/B1/G2) = AMPK(A1/B1/G2) (Homo sapiens, UniProt Q13131); test: HotSpot kinase assay; settings: read-out: % Enzyme Activity (relative to DMSO control), 10 uM
From the text: as §1

DYRK1/DYRK1A = DYRK1/DYRK1A (Homo sapiens, UniProt Q13627); test: HotSpot kinase assay; settings: read-out: % Enzyme Activity (relative to DMSO control), 10 uM
AMPK(A1/B1/G3) = AMPK(A1/B1/G3) (Homo sapiens, UniProt Q13131); test: HotSpot kinase assay; settings: read-out: % Enzyme Activity (relative to DMSO control), 10 uM
From the text: as §1

DNA-PK = DNA-PK (Homo sapiens, UniProt P78527); test: HotSpot kinase assay; settings: read-out: % Enzyme Activity (relative to DMSO control), 10 uM
From the text: as §1

CDK6/cyclin D1 = CDK6/cyclin D1 (Homo sapiens, UniProt Q00534); test: HotSpot kinase assay; settings: read-out: % Enzyme Activity (relative to DMSO control), 10 uM
From the text: as §1

CK1g2 = CK1g2 (Homo sapiens, UniProt P78368); test: HotSpot kinase assay; settings: read-out: % Enzyme Activity (relative to DMSO control), 10 uM
TAK1 = TAK1 (Homo sapiens, UniProt O43318); test: HotSpot kinase assay; settings: read-out: % Enzyme Activity (relative to DMSO control), 10 uM
From the text: as §1

MEKK1 = MEKK1 (Homo sapiens, UniProt Q13233); test: HotSpot kinase assay; settings: read-out: % Enzyme Activity (relative to DMSO control), 10 uM
MLCK2/MYLK2 = MLCK2/MYLK2 (Homo sapiens, UniProt Q9H1R3); test: HotSpot kinase assay; settings: read-out: % Enzyme Activity (relative to DMSO control), 10 uM
From the text: as §1

GRK3 = GRK3 (Homo sapiens, UniProt P35626); test: HotSpot kinase assay; settings: read-out: % Enzyme Activity (relative to DMSO control), 10 uM
From the text: as §1

STK25/YSK1 = STK25/YSK1 (Homo sapiens, UniProt O00506); test: HotSpot kinase assay; settings: read-out: % Enzyme Activity (relative to DMSO control), 10 uM
From the text: as §1

PKCzeta = PKCzeta (Homo sapiens, UniProt Q05513); test: HotSpot kinase assay; settings: read-out: % Enzyme Activity (relative to DMSO control), 10 uM
From the text: as §1

YSK4/MAP3K19 = YSK4/MAP3K19 (Homo sapiens, UniProt Q56UN5); test: HotSpot kinase assay; settings: read-out: % Enzyme Activity (relative to DMSO control), 10 uM
From the text: as §1

CDK7/cyclin H = CDK7/cyclin H (Homo sapiens, UniProt P50613); test: HotSpot kinase assay; settings: read-out: % Enzyme Activity (relative to DMSO control), 10 uM
Sequence of CDK7/cyclin H (P50613 whole entry): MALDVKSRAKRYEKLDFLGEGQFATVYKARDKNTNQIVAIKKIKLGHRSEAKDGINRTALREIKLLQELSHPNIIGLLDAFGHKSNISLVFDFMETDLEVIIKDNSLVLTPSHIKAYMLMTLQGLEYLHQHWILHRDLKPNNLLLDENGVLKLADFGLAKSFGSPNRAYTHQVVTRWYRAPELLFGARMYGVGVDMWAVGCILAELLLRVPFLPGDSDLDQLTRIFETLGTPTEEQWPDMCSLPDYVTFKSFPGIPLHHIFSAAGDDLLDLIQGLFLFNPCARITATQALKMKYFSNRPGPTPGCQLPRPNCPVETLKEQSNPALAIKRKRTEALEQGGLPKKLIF
Sequence of CDK7/cyclin H (P51946 whole entry partner): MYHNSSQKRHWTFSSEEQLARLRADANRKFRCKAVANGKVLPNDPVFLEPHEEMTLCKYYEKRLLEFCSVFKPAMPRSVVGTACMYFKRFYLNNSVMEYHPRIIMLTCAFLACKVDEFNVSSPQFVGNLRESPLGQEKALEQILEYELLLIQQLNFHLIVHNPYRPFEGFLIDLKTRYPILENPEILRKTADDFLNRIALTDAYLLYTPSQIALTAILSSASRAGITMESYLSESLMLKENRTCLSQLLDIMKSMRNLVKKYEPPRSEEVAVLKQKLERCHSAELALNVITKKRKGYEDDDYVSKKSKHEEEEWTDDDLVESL
Sequence of CDK7/cyclin H (P51948 whole entry partner): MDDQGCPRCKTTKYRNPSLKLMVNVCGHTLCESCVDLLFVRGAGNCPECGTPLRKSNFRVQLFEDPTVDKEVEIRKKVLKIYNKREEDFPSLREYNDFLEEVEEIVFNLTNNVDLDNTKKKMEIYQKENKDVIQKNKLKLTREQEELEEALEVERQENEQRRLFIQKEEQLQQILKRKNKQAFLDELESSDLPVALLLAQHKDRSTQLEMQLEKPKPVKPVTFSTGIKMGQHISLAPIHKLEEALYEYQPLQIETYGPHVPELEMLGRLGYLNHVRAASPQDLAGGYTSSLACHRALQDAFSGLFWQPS
From the text: as §1

Sequence of c-MER (Q12866 21-999): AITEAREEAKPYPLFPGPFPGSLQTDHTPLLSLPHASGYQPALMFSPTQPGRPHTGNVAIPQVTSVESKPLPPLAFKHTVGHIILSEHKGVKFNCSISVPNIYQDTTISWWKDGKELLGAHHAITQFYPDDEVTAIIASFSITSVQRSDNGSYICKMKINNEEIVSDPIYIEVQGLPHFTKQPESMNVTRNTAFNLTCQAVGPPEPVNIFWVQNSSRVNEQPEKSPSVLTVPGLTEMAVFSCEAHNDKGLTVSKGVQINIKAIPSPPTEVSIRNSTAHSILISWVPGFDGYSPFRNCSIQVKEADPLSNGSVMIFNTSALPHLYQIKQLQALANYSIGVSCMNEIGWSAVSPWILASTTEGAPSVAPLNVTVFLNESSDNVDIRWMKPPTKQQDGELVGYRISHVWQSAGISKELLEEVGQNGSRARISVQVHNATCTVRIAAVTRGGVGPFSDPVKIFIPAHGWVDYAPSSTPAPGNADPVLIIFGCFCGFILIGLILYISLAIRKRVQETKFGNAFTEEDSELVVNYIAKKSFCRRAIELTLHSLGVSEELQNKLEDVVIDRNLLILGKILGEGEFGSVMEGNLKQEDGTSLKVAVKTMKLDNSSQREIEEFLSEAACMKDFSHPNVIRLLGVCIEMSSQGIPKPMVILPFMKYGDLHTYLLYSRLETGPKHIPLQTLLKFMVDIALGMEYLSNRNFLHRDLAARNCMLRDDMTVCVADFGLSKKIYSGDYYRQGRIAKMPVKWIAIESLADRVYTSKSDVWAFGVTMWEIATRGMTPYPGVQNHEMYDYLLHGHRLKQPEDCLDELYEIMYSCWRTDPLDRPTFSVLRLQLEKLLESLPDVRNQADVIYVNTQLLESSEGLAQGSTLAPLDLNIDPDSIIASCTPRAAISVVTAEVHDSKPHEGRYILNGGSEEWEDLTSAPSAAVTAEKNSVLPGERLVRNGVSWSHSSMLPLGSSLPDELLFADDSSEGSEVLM
Sequence of CDK16/cyclin Y (PCTAIRE) (Q00536 whole entry): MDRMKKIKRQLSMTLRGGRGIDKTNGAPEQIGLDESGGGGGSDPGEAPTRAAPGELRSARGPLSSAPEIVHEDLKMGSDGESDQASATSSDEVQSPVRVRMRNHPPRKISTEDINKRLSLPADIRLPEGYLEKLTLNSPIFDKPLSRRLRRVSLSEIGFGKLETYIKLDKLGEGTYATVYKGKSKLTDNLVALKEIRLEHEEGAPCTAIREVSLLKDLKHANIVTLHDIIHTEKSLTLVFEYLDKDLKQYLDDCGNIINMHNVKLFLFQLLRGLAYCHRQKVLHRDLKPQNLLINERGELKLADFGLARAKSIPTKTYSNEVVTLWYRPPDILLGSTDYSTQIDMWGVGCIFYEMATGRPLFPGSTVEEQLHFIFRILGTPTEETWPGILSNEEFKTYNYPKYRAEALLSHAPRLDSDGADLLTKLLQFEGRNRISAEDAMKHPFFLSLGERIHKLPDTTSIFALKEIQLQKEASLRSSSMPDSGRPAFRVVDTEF
Sequence of CDK16/cyclin Y (PCTAIRE) (Q8ND76 whole entry partner): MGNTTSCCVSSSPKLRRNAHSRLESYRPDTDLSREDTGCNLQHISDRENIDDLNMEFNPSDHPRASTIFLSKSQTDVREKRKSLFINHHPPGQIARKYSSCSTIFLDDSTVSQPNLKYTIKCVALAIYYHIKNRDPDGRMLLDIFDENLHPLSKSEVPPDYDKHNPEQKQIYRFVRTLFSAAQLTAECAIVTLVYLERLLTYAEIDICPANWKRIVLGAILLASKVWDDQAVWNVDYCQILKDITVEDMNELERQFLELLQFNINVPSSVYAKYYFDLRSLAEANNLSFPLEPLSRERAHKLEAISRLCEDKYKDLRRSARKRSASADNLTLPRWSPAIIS
Sequence of NEK2 (P51955 whole entry): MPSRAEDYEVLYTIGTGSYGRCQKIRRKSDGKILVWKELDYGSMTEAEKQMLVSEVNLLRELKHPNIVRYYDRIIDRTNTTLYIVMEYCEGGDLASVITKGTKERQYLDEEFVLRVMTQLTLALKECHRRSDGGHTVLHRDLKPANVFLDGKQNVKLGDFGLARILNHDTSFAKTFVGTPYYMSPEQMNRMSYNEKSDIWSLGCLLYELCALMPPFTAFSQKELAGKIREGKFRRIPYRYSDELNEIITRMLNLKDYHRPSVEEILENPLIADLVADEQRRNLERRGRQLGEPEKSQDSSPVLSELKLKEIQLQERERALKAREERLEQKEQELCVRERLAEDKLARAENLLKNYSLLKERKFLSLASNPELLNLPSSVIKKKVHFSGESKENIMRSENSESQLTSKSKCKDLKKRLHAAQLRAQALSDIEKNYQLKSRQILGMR
Sequence of ERBB2/HER2 (P04626 23-1255): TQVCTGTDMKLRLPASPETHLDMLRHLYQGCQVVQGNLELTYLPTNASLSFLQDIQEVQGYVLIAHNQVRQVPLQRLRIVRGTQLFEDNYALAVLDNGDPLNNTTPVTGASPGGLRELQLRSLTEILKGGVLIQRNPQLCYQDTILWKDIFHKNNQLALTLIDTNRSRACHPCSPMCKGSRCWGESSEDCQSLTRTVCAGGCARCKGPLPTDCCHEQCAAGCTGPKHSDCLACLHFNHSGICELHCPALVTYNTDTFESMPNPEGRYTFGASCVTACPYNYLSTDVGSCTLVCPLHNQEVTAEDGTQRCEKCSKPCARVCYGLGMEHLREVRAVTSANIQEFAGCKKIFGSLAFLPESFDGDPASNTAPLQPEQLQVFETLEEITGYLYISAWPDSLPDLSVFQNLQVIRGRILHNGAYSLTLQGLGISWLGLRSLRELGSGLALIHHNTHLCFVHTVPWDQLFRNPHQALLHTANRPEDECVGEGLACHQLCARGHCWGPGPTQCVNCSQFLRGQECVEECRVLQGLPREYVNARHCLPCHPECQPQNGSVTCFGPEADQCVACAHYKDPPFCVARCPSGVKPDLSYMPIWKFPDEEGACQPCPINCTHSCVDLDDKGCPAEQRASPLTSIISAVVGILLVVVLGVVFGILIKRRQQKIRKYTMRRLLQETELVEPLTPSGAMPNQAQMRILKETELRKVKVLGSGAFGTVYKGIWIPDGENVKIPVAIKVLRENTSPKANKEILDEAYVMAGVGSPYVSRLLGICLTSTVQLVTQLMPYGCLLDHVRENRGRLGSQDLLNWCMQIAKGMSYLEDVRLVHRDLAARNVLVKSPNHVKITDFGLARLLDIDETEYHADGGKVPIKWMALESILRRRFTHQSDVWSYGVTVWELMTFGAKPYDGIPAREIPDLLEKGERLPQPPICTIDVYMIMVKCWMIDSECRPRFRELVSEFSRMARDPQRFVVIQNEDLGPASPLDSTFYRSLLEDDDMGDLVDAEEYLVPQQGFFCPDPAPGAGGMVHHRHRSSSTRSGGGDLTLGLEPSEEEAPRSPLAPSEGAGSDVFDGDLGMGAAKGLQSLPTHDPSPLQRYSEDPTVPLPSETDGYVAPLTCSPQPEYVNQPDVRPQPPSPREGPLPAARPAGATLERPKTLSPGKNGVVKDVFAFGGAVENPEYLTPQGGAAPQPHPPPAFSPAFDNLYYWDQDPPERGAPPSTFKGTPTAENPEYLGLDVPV
Sequence of CDK14/cyclin Y (PFTK1) (O94921 whole entry): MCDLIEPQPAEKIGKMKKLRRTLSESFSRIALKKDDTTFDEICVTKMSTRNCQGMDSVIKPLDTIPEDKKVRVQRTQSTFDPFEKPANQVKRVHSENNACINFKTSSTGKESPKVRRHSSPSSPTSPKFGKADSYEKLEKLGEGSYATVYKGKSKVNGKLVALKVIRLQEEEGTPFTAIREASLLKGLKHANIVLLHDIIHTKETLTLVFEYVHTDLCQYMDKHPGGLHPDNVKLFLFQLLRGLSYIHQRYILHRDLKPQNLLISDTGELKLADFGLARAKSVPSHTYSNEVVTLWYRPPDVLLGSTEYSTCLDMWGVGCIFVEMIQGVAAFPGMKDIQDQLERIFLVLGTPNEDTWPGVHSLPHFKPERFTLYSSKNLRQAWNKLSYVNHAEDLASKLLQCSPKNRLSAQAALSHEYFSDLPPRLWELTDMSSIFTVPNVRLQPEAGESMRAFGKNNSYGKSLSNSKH
Sequence of CDK14/cyclin Y (PFTK1) (Q8ND76 whole entry partner): as the sequence (Q8ND76 whole entry partner) above

`C#C[C@@](C)(c1ccc(Cl)cc1)c1csc(NC(=O)c2c(F)cc(N3CCNCC3)cc2F)n1` (stereo in doubt) [DF-003] gave a remaining activity at 10 µM (ERBB2/HER2) of 95.9%, a remaining activity at 10 µM (DYRK2) of 83.6% and a remaining activity at 10 µM (PLK2) of 109%. The remaining activity at 10 µM (SIK3) was 79.6%, the remaining activity at 10 µM (c-MER) was 89.5% and the remaining activity at 10 µM (MNK1) was 85.4%. For the same compound, the remaining activity at 10 µM (NEK2) was 68.6%, the remaining activity at 10 µM (CDK16/cyclin Y (PCTAIRE)) was 91.8% and the remaining activity at 10 µM (EIF2AK4) was 101%. For the same compound, the remaining activity at 10 µM (NIM1) was 52.2%, the remaining activity at 10 µM (CDK1/cyclin E) was 83.6% and the remaining activity at 10 µM (CAMK1d) was 39.1%. For the same compound, the remaining activity at 10 µM (BMX/ETK) was 87.5%, the remaining activity at 10 µM (JNK2) was 107% and the remaining activity at 10 µM (MLK1/MAP3K9) was 79.7%. For the same compound, the remaining activity at 10 µM (MRCKa/CDC42BPA) was 85.9%, the remaining activity at 10 µM (TSSK3/STK22C) was 53.7% and the Luciferase signal ([1]; OE ALPK1, DF-003 3.174 nM) was 1.097 and 1.020 and 1.022. For the same compound, the Luciferase signal ([1]; OE ALPK1, DF-003 10.029 nM) was 0.986 and 1.052 and 0.781, the Luciferase signal ([1]; OE ALPK1, DF-003 31.691 nM) was 1.122 and 1.009 and 1.070 and the Luciferase signal ([1]; OE ALPK1, DF-003 100.144 nM) was 1.037 and 1.150 and 1.192. The Luciferase signal ([1]; OE ALPK1, DF-003 316.456 nM) was 1.532 and 0.863 and 1.106, the Luciferase signal ([1]; OE ALPK1, DF-003 1000.000 nM) was 1.282 and 1.245 and 1.248 and the Luciferase signal ([1]; OE ALPK1, DF-003 3160.000 nM) was 0.913 and 0.816 and 0.878. For the same compound, the Luciferase signal ([1]; OE ALPK1, DF-003 10000.000 nM) was 1.096 and 0.857 and 1.177, the remaining activity at 10 µM (MSK1/RPS6KA5) was 57.8% and the remaining activity at 10 µM (CK2a) was 101%. The remaining activity at 10 µM (CDK14/cyclin Y (PFTK1)) was 98.8%, the remaining activity at 10 µM (JAK3) was 98.8% and the remaining activity at 10 µM (MST4) was 69.3%. For the same compound, the general immunosuppression [2] was “no general immunosuppression was observed”, the remaining activity at 10 µM (AMPK(A1/B1/G2)) was 114% and the remaining activity at 10 µM (DYRK1/DYRK1A) was 98.5%. For the same compound, the remaining activity at 10 µM (AMPK(A1/B1/G3)) was 92.7%, the remaining activity at 10 µM (DNA-PK) was 85.3% and the remaining activity at 10 µM (CDK6/cyclin D1) was 99.8%. The remaining activity at 10 µM (CK1g2) was 121%, the remaining activity at 10 µM (TAK1) was 102% and the remaining activity at 10 µM (MEKK1) was 99.9%. The remaining activity at 10 µM (MLCK2/MYLK2) was 81.3%, the remaining activity at 10 µM (GRK3) was 111% and the remaining activity at 10 µM (STK25/YSK1) was 82.9%. For the same compound, the remaining activity at 10 µM (PKCzeta) was 89.4%, the remaining activity at 10 µM (YSK4/MAP3K19) was 100% and the remaining activity at 10 µM (CDK7/cyclin H) was 102%.
